Laboratory results taken from patent EP0598515A1, “Method for herbicidal activity-enhancing, activity-enhanced herbicidal composition and activity-enhancing composition” (ISHIHARA SANGYO KAISHA LTD., priority 1992, dated 1994).
Where “and” joins values, the source holds several entries; their conditions need not be identical. Identical values can stand only once. Like-named read-outs stand apart in the source and are kept apart here.

Tests used:
Type in all cases: in vivo
[1] = system: common cocklebur (Xanthium strumarium L.); test: Test Example 9: pot test, Example 8 suspension concentrate with Frigate; conditions: Xanthium strumarium, 528 h, 22 days after treatment, read-out: Growth Inhibition (%) Common Cocklebur; for inhibition at 40 g/ha: Compound A 40 g/ha; for inhibition at 10 g/ha: Compound A 10 g/ha; for inhibition at 20 g/ha: Compound A 20 g/ha
Description: (§1) Velvetleaf (Abutilon theophrasti MEDIC.) and common cocklebur (Xanthium strumarium L.) seeds were sown in 1/1,000,000-hectare pots filled with upland soil and arranged in a duplicate system. When the velvetleaf plants and common cocklebur plants grew to a 2.1- and 2.3-leaf stage, respectively, the oil-based suspension concentrate obtained in Example 8 was diluted with 500 liters/hectare of water containing a predetermined amount of Frigate and was applied foliarly to the plants with a small spray gun.
(§2) Twenty two days after treatment, the growth inhibition of plants was evaluated with visual observation in the same manner as in Test Example 1 and are shown in Table 9.

[2] = system: Velvetleaf (Abutilon theophrasti MEDIC.); test: as above; conditions: 22 days after treatment; for inhibition at 20 g/ha: Compound A 20 g/ha; for inhibition at 40 g/ha: Compound A 40 g/ha
Description: as §1, §2

[3] = system: barnyardgrass (Echinochloa crus-galli L.); test: Test Example 13: field plot test, growth inhibition; conditions: Example 8 suspension concentrate, 27 days after treatment, field plots; for inhibition at 30 g/ha: Compound A 30 g/ha
From the text: (§3) In field plots of 4 m² (1 m × 4 m) unit arranged in a duplicate system, seeds of corn, crabgrass (Digitaria sanguinalis L.) common lambsquarters (Chenopodium album L.), slender amaranth (Amaranthus viridis L.), velvetleaf (Abutilon theophrasti MEDIC.) and common cocklebur (Xanthium strumarium L.) were sown and grown. Also, green foxtail (Setaria viridis L.) and barnyardgrass (Echinochloa crus-galli L.) were allowed to grow spontaneously. When the plants grew to certain stages (corn: 4.2 to 6.0-leaf stage, crabgrass: 3.2 to 5.0-leaf stage, common lambsquarters: 3.0 to 6.0-leaf stage, slender amaranth: 2.0 to 5.0-leaf stage, velvetleaf: 1.5 to 4.0-leaf stage, common cocklebur: cotyledonal to 3.5-leaf stage, green foxtail: 3.0 to 5.0-leaf stage and barnyardgrass: 3.0 to 5.0-leaf stage), the oil-based suspension concentrate obtained in Example 8 was diluted with 200 liters/hectare of water containing a predetermined amount of Frigate and was applied foliarly to the plants with a small spray gun.
Twenty seven days after treatment, the growth inhibition of plants except for corn plants was evaluated with visual observation in the same manner as in Test Example 1 and are shown in Table 13.

corn plants = test: Test Example 13: field plot test, injury on corn; conditions: Example 8 suspension concentrate, 4 days after treatment, 0 for no injury to 5 for severe injure
From the text: as §3
On the other hand, 4 days after treatment, corn plants were examined for condition of injury (degree of discoloration and yellowing) with visual observation and the results are also shown in Table 13 (0 for no injury to 5 for severe injure).

[4] = Frigate 0.25 % by volume, duplicate
[5] = Frigate 0.5 % by volume, duplicate
[6] = Abutilon theophrasti, 528 h, Frigate 0.125 % by volume, duplicate, read-out: Growth Inhibition (%) Velvetleaf
[7] = Abutilon theophrasti, 528 h, Frigate 0.25 % by volume, duplicate, read-out: Growth Inhibition (%) Velvetleaf
[8] = Abutilon theophrasti, 528 h, Frigate: No addition, duplicate, read-out: Growth Inhibition (%) Velvetleaf
[9] = Frigate: No addition, Compound A 40 g/ha

Q: How did the inhibition at 40 g/ha ([1]; Frigate 0.125 % by volume, duplicate) turn out when COc1cc(OC)nc(NC(=O)NS(=O)(=O)c2ncccc2C(=O)N(C)C)n1 [Compound A, N-[(4,6-dimethoxypyrimidin-2-yl)aminocarbonyl]-3-dimethylaminocarbonyl-2-pyridinesulfonamide] was run?
A: 100%

Q: And the inhibition at 10 g/ha [1, 4]?
A: 30%

Q: What about the inhibition at 20 g/ha [1, 4] of the same compound?
A: 95%

Q: And the inhibition at 40 g/ha [1, 4]?
A: 100%

Q: And the inhibition at 10 g/ha [1, 5]?
A: 60%

Q: What about the inhibition at 20 g/ha [1, 5] of the same compound?
A: 98%

Q: And the inhibition at 40 g/ha ([1]; Frigate 0.5 % by volume)?
A: 100%

Q: What about the inhibition at 40 g/ha ([1]; Frigate: No addition, duplicate) of the same compound?
A: 85%

Q: What about the inhibition at 50 g/ha ([1]; Frigate: No addition, Compound A 50 g/ha, duplicate) of the same compound?
A: 95%

Q: What about the inhibition at 60 g/ha ([1]; Frigate: No addition, Compound A 60 g/ha, duplicate) of the same compound?
A: 98%

Q: What about the inhibition at 10 g/ha ([2]; Abutilon theophrasti, 528 h, Frigate 0.125 % by volume, Compound A 10 g/ha, duplicate, read-out: Growth Inhibition (%) Velvetleaf) of the same compound?
A: 30%

Q: And the inhibition at 20 g/ha [2, 6]?
A: 65%

Q: And the inhibition at 40 g/ha [2, 6]?
A: 85%

Q: What about the inhibition at 10 g/ha ([2]; Abutilon theophrasti, 528 h, Frigate 0.25 % by volume, Compound A 10 g/ha, duplicate, read-out: Growth Inhibition (%) Velvetleaf) of the same compound?
A: 40%

Q: What about the inhibition at 20 g/ha [2, 7] of the same compound?
A: 80%

Q: What about the inhibition at 40 g/ha [2, 7] of the same compound?
A: 85%

Q: What about the inhibition at 10 g/ha ([2]; Abutilon theophrasti, 528 h, Frigate 0.5 % by volume, Compound A 10 g/ha, duplicate, read-out: Growth Inhibition (%) Velvetleaf) of the same compound?
A: 60%

Q: What about the inhibition at 20 g/ha ([2]; Abutilon theophrasti, 528 h, Frigate 0.5 % by volume, duplicate, read-out: Growth Inhibition (%) Velvetleaf) of the same compound?
A: 80%

Q: And the inhibition at 40 g/ha ([2]; Abutilon theophrasti, 528 h, Frigate 0.5 % by volume, read-out: Growth Inhibition (%) Velvetleaf)?
A: 90%

Q: What about the inhibition at 20 g/ha [2, 8] of the same compound?
A: 20%

Q: What about the inhibition at 40 g/ha [2, 8] of the same compound?
A: 65%

Q: What about the inhibition at 50 g/ha ([2]; Abutilon theophrasti, 528 h, Frigate: No addition, Compound A 50 g/ha, duplicate, read-out: Growth Inhibition (%) Velvetleaf) of the same compound?
A: 75%

Q: And the inhibition at 60 g/ha ([2]; Abutilon theophrasti, 528 h, Frigate: No addition, Compound A 60 g/ha, duplicate, read-out: Growth Inhibition (%) Velvetleaf)?
A: 80%

Q: What about the “Growth Inhibition (%) Velvetleaf” value ([2]; Frigate 0.25 % by volume, Compound A 10 g/ha, duplicate) of the same compound?
A: 50%

Q: What about the inhibition at 40 g/ha ([3]; Echinochloa crus-galli, 648 h, Frigate 0.1 % by volume, Compound A 40 g/ha, read-out: Growth Inhibition (%) EC) of the same compound?
A: 100%

Q: And the inhibition at 20 g/ha ([3]; Echinochloa crus-galli, 648 h, Frigate 0.2 % by volume, Compound A 20 g/ha, read-out: Growth Inhibition (%) EC)?
A: 100%

Q: What about the inhibition at 30 g/ha ([3]; Echinochloa crus-galli, 648 h, Frigate 0.2 % by volume, read-out: Growth Inhibition (%) EC) of the same compound?
A: 100%

Q: And the inhibition at 40 g/ha ([3]; Echinochloa crus-galli, 648 h, Frigate 0.2 % by volume, Compound A 40 g/ha, read-out: Growth Inhibition (%) EC)?
A: 100%

Q: And the inhibition at 30 g/ha ([3]; Echinochloa crus-galli, 648 h, Frigate: No addition, read-out: Growth Inhibition (%) EC)?
A: 65%

Q: What about the inhibition at 40 g/ha ([3]; Echinochloa crus-galli, 648 h, Frigate: No addition, Compound A 40 g/ha, read-out: Growth Inhibition (%) EC) of the same compound?
A: 75%

Q: And the “Growth Inhibition (%) EC” value [3, 9]?
A: 60%

Q: And the “Injury on Corn” value (corn plants; Frigate 0.1 % by volume, Compound A 30 g/ha)?
A: 1.0

Q: And the “Injury on Corn” value (corn plants; Frigate 0.1 % by volume, Compound A 40 g/ha)?
A: 1.0

Q: What about the “Injury on Corn” value (corn plants; Frigate 0.2 % by volume, Compound A 20 g/ha) of the same compound?
A: 1.0

Q: What about the “Injury on Corn” value (corn plants; Frigate 0.2 % by volume, Compound A 30 g/ha) of the same compound?
A: 1.0 and 1.5

Q: And the “Injury on Corn” value (corn plants; Frigate 0.2 % by volume, Compound A 40 g/ha)?
A: 1.5 and 2.0

Q: And the “Injury on Corn” value (corn plants; Frigate: No addition, Compound A 30 g/ha)?
A: 1.0

Q: What about the “Injury on Corn” value (corn plants; [9]) of the same compound?
A: 1.0 and 1.5

Q: And the “Injury on Corn” value (corn plants; Frigate: No addition, Compound A 50 g/ha)?
A: 1.0
